The values that follow are results of earlier work, collected in patent US10765664B2, “Treatment of infectious diseases” (CHILDREN'S MEDICAL CENTER CORPORATION, priority 2015, dated 2020).

The test system of the series is nonreplicating MTb. Conditions: extremely high inocula; cited from earlier work.

On to `CC(=O)Oc1ccccc1C(=O)Nc1ncc([N+](=O)[O-])s1` [NTZ, [2-[(5-nitro-1,3-thiazol-2-yl)carbamoyl]phenyl] ethanoate], for which the resistance mutants result is “no evidence of resistance mutants”.
